Measurements from patent publication US8232107B2, “Methods for measuring the metabolism of neurally derived biomolecules in vivo” (Washington University in St. Louis, priority 2005, dated 2012).

Tests used:
[1] = in vivo, iv, 2 mg/kg
Excerpt: All human studies were approved by the Washington University Human Studies Committee and the General Clinical Research Center (GCRC) Advisory Committee. Informed consent was obtained from all participants. All participants were screened to be in good general health and without neurologic disease. Seven men and three women (23-45 yrs old) participated. Each research participant was admitted to the GCRC at 7:00 AM after an overnight fast from 8 PM the preceding evening. The GCRC Research Kitchen provided meals (60% carbohydrate, 20% fat, 20% protein, low leucine diet during labeled leucine infusion) at 9 AM, 1 PM, and 6 PM and the participant had free access to water. All food and water consumption was recorded during the admission by nursing staff and the GCRC kitchen. One intravenous catheter was placed in an antecubital vein and used to administer the stable isotope labeled leucine solution. A second intravenous catheter was placed in the contra-lateral antecubital vein to obtain blood samples. A subarachnoid catheter was inserted at the L3-L4 interspace via a Touhy needle, so that CSF could be sampled without performing multiple lumbar punctures (Williams, 2002, Neurology 58: 1859-1860). […]
Every hour, 10 ml of plasma was obtained through the other IV. […] To obtain amino acid sequence and abundance data, these parent ions were subjected to collision induced dissociation (CID 28%), and tandem MS analysis of their doubly-charged species ([M+2H]^+2; m/z 663.6 and 666.6) were scanned in selected reaction monitoring mode (SRM), so that the y- and b-series ions generated were used for isotope ratio quantitation (FIG. 6). […]
Plasma and CSF samples were analyzed to determine the amount of labeled leucine present in each fluid (FIG. 9). The labeled to unlabeled leucine ratios for plasma and CSF ^13C6-leucine were quantified using capillary gas chromatography-mass spectrometry (GC-MS) (Yarasheski et al. 2005, Am J. Physiol. Endocrinol. Metab. 288: E278-284; Yarasheski et al. 1998 Am J. Physiol. 275: E577-583), which is more appropriate than LC-ESI-MS for low mass amino acid analysis.

[2] = Measurement of ApoE metabolism in vivo (CSF, WUE4 affinity purification, nanoLC tandem MS); set-up: species or system human
Excerpt: As depicted in FIG. 13, human ApoE was immunoprecipitated from CSF or astrocyte cell culture media using WUE4, a specific anti-human ApoE monoclonal (anti-ApoE) antibody. An immortalized astrocyte cell line from transgenic mice expressing human ApoE was used to produce ^13C6-labeled leucine ApoE standards. Immunoprecipitated ApoE was then digested with sequencing-grade trypsin. Released peptides were separated by nano liquid chromatography and quantitated by tandem mass spectrometry (nanoLC-MS). The efficiency and selectivity of the immuno-affinity purification was confirmed by analyzing the samples following a general proteomics LC-MS method. Results from Bioworks™3.2, using the SEQUEST algorithm, confirmed ApoE was the predominant protein present in samples, and identified the most abundant peptides containing leucines, which could be used for quantitation. Due to the 6 Da mass shift of a ^13C6-labeled leucine, unlabeled peptides were distinguishable from labeled peptides. Tandem MS was performed on the peptides of interest, and the percent of ^13C-leucine incorporated into ApoE was determined by calculating the ratio of labeled product ions to unlabeled product ions. The excellent linearity from 0-25% labeling (R^2=0.99) indicates the method developed to measure ApoE is sensitive, specific, and accurate.
CSF was collected every hour for 36 hours.

[3] = In vivo labeling of Aβ in human CSF, immunoprecipitation-MS/MS, calculation of FSR and FCR
Protocol: Informed consent was obtained from all participants. […] CSF samples were obtained hourly throughout the study.
Aβ metabolic labeling curves of three participants are presented in FIG. 8. ^13C6-labeled leucine was infused through one IV at a rate of 1.9 (circles), 2.5 (triangles), or 2.5 (squares) mg/kg/hr for 12 (circles, triangles) or 9 (squares) hours. Each hour, 10 ml of plasma and 6 ml of CSF were obtained through the other IV and the lumbar catheter, respectively. There was a 5-hour lag time before significant rises in labeled Aβ was detected. This was followed by a 9 (squares) or 12 (triangles or circles) hour increase in labeled Aβ until it plateaued for another 5 hours.
For each hourly sample of CSF collected, the ratio of labeled to unlabeled Aβ was determined by immunoprecipitation-MS/MS, as described above. The MS/MS ions from ^13C6-labeled Aβ17-28 were divided by the MS/MS ions from unlabeled Aβ17-28 to produce a ratio of labeled Aβ to unlabeled Aβ (see TTR formula, above). There was no measurable labeled Aβ for the first 4 hours, followed by an increase from 5 to 13 hours. There was no significant change from 13 to 24 hours. The labeled Aβ decreased from 24 to 36 hours.
[formula] Where (Et2-Et1)Aβ/(t2-t1) is defined as the slope of labeled Aβ during labeling and the Precursor E is the ratio of labeled leucine. FSR, in percent per hour, was operationally defined as the slope of the linear regression from 6 to 15 hours divided by the average of CSF ^13C6-labeled leucine level during infusion (see FIG. 11A-C). For example, a FSR of 7.6% per hour means that 7.6% of total Aβ was produced each hour.
The fractional clearance rate (FCR) was calculated by fitting the slope of the natural logarithm of the clearance portion of the labeled Aβ curve, according to the following formula: […]
The FCR was operationally defined as the natural log of the labeled Aβ from 24 to 36 hours (FIG. 11D-F). For example, a FCR of 8.3% per hour means that 8.3% of total Aβ was cleared each hour. The average FSR of Aβ for these 6 healthy young participants was 7.6%/hr and the average FCR was 8.3%/hr (FIG. 12). These values were not statistically different from each other.

Compound: CC(C)C[C@H](N)C(=O)O [^13C6-leucine]
- steady state level of 13C6-leucine in CSF [1]: 10%
- steady state level of 13C6-leucine in plasma [1]: 14%
- time to reach steady state levels in plasma and CSF [1]: within an hour

Compound: ApoE: human apolipoprotein E, CNS-derived, purified from CSF
- fractional synthesis rate (FSR) of ApoE ([2]; CSF, young normal controls (FIG. 15 and 16)): approximately 2 percent per hour
- time in which approximately half of the ApoE pool is synthesized in the human brain ([2]; from FSR): about 24 hours

Compound: Aβ: amyloid-β protein, CNS derived biomolecule whose metabolism is measured
- average fractional synthesis rate (FSR) of Aβ ([3]; 6 healthy young participants): 7.6 %/hr
- average fractional clearance rate (FCR) of Aβ ([3]; hours 24 to 36, 3 participants): 8.3 %/hr
- initial period with no measurable labeled Aβ ([3]; mean of n=6 (FIG. 10)): 4 h
- lag time before significant rises in labeled Aβ ([3]; three participants (FIG. 8)): 5 h
